This note sets out measurements from PubChem BioAssay AID602238 (National Center for Advancing Translational Sciences (NCATS), 2012).

Structures are written as SMILES.

The series relates to mouse liver microsomes, percent remaining, LC-MS/MS. The series is described as follows: qHTS for Activators of Human alpha-Glucosidase as a Potential Chaperone Treatment of Pompe Disease: Metabolic Stability. The settings on record: at 5 µM; active compounds read high. From the text:
Alpha-glucosidase is responsible for hydrolysis of terminal, non-reducing 1,4-linked alpha-D-glucose residues with release of alpha-D-glucose. It is a lysosomal hydrolase that is required for the degradation of a small percentage (1-3%) of cellular glycogen in human. Deficiency of this enzyme results in glycogen-storage disease type II (GSDII), also referred to as Pompe disease, an autosomal recessive disorder. Structurally normal glycogen is accumulated in lysosomes and cytoplasm in affected patients, primarily in muscle tissues. Excessive glycogen storage within lysosomes may interrupt normal functioning of other organelles and leads to cellular injury. In turn, this leads to enlargement and dysfunction of the entire organ involved (eg, cardiomyopathy and muscle weakness). It has reported that the improper folding and trafficking of alpha-glucosidase resulting from the genetic mutations may account for a significant number of Pompe patients. […] We optimized this alpha-glucosidase assay in 1536-well plate format for identifying the novel small molecule inhibitors with the structures other than the sugar analogs in order to develop the new pharmacological chaperones. The probe and other compounds were characterized in this metabolic stability assay to asses their properties. NIH Chemical Genomics Center [NCGC] NIH Molecular Libraries Probe Production Centers Network [MLPCN] MLPCN Grant: MH084841 Assay Submitter (PI): Wei Zheng
5uM of compound is incubated with mouse liver microsome; the reference compounds are verapamil and warfarin. Compounds are incubated and samples are analyzed with LC-MS/MS.
A general note: In qHTS, concentration-response curves come from the screen itself.
Take `CCCN1CNc2c(c(=O)[nH]c(=S)n2Cc2ccc(OC)c(OC)c2)C1`: the percent remaining was 101%.
With `CCCN1CNc2c(c(=O)[nH]c(=S)n2CCc2ccc(OC)c(OC)c2)C1` the figure was 4%; with `CCCN1CNc2c(c(=O)[nH]c(=S)n2CCc2cccc(Cl)c2Cl)C1`, 105%.
